In ChEMBL document CHEMBL5465560, “Selectivity Literature for EUbOPEN Chemogenomic Library” (2024):
Each block holds one compound with its values, some of them ahead of it.

Legend:
[1] = molecular target: Serine/threonine-protein kinase PAK 6 (Homo sapiens) (UniProt Q9NQU5); conditions: at 10 µM
[2] = molecular target: Receptor tyrosine-protein kinase erbB-4 (Homo sapiens, UniProt Q15303); assay: Selectivity interaction (Radiometric kinase assay (using 10 uM ATP)) EUB0000601a ERBB4
[3] = molecular target: T1, Serine/threonine-protein kinase tousled-like 1 (Homo sapiens) (UniProt Q9UKI8); assay: Selectivity interaction (ActivX KiNativ screen (kinase selectivity in THP-1 cell lysates)) EUB0000639a TLK1; format: subcellular; conditions: lysate, at 1 µM
T1 sequence (whole entry): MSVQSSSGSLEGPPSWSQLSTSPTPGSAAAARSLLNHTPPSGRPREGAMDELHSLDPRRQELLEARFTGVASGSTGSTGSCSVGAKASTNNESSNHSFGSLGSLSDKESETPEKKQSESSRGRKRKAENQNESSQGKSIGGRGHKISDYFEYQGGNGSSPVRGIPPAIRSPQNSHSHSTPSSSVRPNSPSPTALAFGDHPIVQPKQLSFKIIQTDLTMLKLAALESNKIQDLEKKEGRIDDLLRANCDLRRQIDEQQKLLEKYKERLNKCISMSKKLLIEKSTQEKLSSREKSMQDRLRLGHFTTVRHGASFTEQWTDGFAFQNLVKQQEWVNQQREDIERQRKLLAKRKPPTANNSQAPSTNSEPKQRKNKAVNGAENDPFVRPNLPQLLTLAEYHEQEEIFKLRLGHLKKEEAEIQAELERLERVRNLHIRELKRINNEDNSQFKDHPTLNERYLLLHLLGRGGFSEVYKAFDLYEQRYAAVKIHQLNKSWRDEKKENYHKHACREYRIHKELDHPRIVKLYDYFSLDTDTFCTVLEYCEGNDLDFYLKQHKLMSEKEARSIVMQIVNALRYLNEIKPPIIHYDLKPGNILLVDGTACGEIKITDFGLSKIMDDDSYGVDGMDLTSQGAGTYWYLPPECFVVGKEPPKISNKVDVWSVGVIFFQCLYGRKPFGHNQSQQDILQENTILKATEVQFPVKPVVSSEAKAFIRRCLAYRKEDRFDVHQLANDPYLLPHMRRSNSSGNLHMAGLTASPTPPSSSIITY

[4] = molecular target: Nuclear receptor subfamily 1 group I member 2 (Homo sapiens, UniProt O75469); assay: Selectivity interaction (Pregnane X Receptor (PXR, SXR) binding, human recombinant ) EUB0000877a NR1I2
Chain of Nuclear receptor subfamily 1 group I member 2 (O75469 whole entry): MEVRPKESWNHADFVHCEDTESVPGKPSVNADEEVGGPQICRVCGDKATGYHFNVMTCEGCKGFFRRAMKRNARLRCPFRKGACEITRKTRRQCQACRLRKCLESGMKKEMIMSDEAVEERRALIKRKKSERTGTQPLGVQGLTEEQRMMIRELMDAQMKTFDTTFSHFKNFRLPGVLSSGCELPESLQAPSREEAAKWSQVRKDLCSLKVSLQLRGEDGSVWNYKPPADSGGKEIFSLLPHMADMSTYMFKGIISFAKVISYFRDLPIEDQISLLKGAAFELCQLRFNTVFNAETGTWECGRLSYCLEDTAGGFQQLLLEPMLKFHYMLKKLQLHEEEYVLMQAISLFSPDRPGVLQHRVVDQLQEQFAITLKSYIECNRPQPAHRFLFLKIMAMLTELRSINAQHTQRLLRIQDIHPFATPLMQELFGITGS

[5] = molecular target: T2, Tyrosine-protein kinase ZAP-70 (Homo sapiens) (UniProt P43403); assay: Selectivity interaction (Kinase panel (literature)) EUB0001199aCl ZAP70; conditions: at 1 µM
T2 sequence (whole entry): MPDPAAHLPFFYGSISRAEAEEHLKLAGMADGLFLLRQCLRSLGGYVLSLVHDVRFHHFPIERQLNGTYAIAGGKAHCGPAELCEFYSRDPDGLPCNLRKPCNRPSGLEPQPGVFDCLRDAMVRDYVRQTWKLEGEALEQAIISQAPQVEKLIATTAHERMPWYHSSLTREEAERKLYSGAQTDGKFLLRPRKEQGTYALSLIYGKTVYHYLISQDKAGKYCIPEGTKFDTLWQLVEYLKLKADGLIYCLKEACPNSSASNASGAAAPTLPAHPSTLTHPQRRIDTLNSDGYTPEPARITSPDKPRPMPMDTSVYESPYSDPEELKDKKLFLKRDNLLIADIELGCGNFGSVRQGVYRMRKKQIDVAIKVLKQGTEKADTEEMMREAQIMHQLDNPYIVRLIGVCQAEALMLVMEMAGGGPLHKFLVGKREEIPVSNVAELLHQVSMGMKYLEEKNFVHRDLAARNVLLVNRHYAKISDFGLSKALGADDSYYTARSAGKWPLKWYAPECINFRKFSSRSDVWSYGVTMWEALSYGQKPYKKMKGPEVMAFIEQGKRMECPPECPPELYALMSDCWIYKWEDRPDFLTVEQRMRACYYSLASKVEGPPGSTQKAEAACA

[6] = molecular target: 5'-AMP-activated protein kinase catalytic subunit alpha-1 (Homo sapiens, UniProt Q13131); conditions: at 10 µM
[7] = molecular target: High affinity nerve growth factor receptor (Homo sapiens, UniProt P04629); assay: Selectivity interaction (KinomeScan (DiscoverX)) EUB0000595a NTRK1; conditions: at 10 µM
[8] = molecular target: PAS domain-containing serine/threonine-protein kinase (Homo sapiens) (UniProt Q96RG2); assay: Selectivity interaction (ProQinase) EUB0000171b PASK
Chain of PAS domain-containing serine/threonine-protein kinase (Homo sapiens) (Q96RG2 whole entry, the tested form may be a part): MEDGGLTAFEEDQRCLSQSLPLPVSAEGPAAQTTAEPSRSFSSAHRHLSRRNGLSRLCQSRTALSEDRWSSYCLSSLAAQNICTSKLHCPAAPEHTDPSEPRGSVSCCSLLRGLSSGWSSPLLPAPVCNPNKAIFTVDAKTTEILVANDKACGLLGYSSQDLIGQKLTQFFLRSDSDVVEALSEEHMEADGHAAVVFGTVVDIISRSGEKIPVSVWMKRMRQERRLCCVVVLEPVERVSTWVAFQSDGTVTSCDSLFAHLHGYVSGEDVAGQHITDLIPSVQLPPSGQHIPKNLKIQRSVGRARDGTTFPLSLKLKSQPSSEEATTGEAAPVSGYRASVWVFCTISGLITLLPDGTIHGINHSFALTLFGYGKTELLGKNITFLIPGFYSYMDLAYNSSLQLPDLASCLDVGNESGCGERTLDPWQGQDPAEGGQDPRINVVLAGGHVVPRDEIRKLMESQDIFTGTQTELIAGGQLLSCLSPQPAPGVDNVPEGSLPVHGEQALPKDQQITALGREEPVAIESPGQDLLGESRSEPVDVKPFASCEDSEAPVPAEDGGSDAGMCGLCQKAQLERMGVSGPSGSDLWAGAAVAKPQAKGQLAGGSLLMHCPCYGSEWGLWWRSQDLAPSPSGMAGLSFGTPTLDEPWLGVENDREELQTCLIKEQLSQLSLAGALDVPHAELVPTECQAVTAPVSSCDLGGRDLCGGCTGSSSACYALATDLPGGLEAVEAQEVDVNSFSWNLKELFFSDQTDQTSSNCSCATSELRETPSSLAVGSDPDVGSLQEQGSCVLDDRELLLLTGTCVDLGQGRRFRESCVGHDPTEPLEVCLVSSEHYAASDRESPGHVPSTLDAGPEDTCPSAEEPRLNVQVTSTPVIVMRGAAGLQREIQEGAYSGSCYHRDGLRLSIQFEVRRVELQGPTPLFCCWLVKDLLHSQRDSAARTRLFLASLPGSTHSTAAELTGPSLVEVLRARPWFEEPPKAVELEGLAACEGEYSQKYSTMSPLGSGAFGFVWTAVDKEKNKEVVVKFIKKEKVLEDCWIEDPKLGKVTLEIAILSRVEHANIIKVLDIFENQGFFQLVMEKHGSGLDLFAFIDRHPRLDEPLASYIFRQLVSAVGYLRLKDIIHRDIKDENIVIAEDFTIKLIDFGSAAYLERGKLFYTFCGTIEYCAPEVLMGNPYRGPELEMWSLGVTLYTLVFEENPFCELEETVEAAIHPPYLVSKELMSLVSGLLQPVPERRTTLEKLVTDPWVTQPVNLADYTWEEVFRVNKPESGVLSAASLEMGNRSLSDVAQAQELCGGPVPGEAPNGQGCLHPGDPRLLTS

[9] = molecular target: 5'-AMP-activated protein kinase catalytic subunit alpha-2 (Homo sapiens) (UniProt P54646); assay: Selectivity interaction (KinomeScan (DiscoverX)) EUB0000092b PRKAA2; conditions: at 10 µM
Chain of 5'-AMP-activated protein kinase catalytic subunit alpha-2 (Homo sapiens) (P54646 whole entry, looked up): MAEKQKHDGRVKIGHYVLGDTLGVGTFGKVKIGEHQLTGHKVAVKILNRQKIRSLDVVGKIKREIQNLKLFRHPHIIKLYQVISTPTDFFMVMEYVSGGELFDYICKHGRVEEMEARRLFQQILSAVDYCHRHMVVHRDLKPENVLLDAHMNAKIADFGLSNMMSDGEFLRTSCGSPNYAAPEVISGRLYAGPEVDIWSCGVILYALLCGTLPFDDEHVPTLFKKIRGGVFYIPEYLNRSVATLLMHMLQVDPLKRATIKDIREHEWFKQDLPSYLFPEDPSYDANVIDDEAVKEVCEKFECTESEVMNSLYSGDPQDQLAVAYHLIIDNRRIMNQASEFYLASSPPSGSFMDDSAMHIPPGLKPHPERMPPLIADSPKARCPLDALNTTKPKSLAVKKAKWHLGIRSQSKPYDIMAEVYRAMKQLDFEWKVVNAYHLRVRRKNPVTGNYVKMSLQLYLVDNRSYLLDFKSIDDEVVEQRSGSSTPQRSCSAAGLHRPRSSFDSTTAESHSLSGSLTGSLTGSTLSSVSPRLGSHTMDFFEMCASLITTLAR

[10] = molecular target: Homeodomain-interacting protein kinase 1 (Homo sapiens, UniProt Q86Z02); assay: Selectivity interaction (KinomeScan (DiscoverX)) EUB0000092b HIPK1; conditions: at 10 µM
[11] = molecular target: Tyrosine-protein kinase Fgr (Homo sapiens) (UniProt P09769); assay: Selectivity interaction (ActivX KiNativ screen (ex vivo kinase selectivity in human PBMCs)) EUB0001619a FGR; format: cell-based; conditions: PBMC, at 1 µM
[12] = molecular target: Receptor tyrosine-protein kinase erbB-2 (Homo sapiens, UniProt P04626); assay: Selectivity interaction (KinomeScan (DiscoverX)) EUB0000618a ERBB2; conditions: at 10 µM
[13] = molecular target: Cyclin-dependent kinase 8 (Homo sapiens, UniProt P49336); assay: Selectivity interaction (KinomeScan (DiscoverX)) EUB0000618a CDK8; conditions: at 10 µM
Chain of Cyclin-dependent kinase 8 (P49336 whole entry): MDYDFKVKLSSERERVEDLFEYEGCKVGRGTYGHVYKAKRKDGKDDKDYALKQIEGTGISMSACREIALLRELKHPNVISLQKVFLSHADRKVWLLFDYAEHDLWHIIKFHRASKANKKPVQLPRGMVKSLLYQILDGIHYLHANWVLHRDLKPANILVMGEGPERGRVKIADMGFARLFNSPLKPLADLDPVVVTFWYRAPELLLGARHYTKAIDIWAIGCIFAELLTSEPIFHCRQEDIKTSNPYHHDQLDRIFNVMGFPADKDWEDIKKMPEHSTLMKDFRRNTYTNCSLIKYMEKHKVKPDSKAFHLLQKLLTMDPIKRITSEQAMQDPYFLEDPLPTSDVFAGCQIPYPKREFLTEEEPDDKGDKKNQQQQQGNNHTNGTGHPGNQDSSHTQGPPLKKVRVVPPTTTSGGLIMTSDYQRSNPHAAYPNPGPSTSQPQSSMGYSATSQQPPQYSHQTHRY

[14] = molecular target: Serine/threonine-protein kinase Nek6 (Homo sapiens) (UniProt Q9HC98); assay: Selectivity interaction (KinomeScan (DiscoverX)) EUB0000607a NEK6; conditions: at 10 µM
Chain of Serine/threonine-protein kinase Nek6 (Homo sapiens) (Q9HC98 whole entry): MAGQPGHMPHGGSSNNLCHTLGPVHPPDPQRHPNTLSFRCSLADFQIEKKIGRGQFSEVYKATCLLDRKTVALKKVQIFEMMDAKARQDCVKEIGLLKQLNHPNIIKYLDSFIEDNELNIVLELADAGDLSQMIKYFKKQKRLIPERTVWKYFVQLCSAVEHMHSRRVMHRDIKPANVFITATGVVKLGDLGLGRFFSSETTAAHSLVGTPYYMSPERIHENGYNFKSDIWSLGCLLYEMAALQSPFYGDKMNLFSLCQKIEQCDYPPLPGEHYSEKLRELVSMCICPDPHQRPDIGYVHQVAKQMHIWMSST

[15] = molecular target: T3, Testis-specific serine/threonine-protein kinase 1 (Homo sapiens) (UniProt Q9BXA7); assay: Selectivity interaction (KinomeScan (DiscoverX)) EUB0000666a TSSK1A; conditions: at 10 µM
T3 sequence (whole entry): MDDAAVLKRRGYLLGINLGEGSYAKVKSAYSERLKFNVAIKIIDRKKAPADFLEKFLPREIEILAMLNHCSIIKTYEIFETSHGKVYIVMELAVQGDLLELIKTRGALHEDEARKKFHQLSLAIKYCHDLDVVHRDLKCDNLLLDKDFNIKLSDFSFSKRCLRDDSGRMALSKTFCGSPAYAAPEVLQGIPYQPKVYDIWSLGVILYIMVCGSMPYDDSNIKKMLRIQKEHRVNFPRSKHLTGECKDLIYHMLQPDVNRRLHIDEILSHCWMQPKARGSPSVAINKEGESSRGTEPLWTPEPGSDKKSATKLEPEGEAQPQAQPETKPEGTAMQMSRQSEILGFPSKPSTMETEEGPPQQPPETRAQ

Chain of Receptor tyrosine-protein kinase erbB-4 (Q15303 whole entry): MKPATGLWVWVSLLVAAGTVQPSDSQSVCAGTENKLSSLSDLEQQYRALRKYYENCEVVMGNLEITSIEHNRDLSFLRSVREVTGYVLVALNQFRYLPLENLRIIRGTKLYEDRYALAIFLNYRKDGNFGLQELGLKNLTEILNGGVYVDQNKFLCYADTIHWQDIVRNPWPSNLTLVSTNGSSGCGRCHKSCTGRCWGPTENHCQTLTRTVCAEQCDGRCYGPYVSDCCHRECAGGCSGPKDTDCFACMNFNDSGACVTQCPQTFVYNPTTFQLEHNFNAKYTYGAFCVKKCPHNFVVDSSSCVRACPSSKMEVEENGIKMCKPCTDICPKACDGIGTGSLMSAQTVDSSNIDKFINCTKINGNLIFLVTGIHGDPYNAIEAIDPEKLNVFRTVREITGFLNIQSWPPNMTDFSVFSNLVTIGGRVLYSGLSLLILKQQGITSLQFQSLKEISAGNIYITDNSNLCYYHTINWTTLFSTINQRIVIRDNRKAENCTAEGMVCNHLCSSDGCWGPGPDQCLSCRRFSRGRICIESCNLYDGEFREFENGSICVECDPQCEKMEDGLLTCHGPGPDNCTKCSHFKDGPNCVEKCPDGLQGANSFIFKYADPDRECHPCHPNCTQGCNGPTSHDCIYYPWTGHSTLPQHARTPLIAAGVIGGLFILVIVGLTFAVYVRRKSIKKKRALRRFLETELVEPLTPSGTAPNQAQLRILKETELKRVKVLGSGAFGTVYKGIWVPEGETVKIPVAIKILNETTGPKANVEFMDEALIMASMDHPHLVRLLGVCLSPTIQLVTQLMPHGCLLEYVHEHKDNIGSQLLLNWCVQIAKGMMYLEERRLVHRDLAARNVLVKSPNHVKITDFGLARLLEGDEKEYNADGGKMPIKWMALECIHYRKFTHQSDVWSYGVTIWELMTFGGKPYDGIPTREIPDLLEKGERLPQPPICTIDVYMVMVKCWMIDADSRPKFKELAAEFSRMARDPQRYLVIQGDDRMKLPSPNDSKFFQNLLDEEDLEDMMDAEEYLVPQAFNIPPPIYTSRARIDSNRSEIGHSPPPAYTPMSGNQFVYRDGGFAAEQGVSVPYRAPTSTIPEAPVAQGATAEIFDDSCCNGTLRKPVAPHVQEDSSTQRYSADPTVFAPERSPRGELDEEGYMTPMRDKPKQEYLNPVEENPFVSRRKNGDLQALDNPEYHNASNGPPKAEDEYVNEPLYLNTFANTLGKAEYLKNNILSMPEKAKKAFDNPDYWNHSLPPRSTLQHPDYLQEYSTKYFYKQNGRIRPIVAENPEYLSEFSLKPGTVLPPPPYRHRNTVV
Chain of Serine/threonine-protein kinase PAK 6 (Homo sapiens) (Q9NQU5 whole entry, looked up): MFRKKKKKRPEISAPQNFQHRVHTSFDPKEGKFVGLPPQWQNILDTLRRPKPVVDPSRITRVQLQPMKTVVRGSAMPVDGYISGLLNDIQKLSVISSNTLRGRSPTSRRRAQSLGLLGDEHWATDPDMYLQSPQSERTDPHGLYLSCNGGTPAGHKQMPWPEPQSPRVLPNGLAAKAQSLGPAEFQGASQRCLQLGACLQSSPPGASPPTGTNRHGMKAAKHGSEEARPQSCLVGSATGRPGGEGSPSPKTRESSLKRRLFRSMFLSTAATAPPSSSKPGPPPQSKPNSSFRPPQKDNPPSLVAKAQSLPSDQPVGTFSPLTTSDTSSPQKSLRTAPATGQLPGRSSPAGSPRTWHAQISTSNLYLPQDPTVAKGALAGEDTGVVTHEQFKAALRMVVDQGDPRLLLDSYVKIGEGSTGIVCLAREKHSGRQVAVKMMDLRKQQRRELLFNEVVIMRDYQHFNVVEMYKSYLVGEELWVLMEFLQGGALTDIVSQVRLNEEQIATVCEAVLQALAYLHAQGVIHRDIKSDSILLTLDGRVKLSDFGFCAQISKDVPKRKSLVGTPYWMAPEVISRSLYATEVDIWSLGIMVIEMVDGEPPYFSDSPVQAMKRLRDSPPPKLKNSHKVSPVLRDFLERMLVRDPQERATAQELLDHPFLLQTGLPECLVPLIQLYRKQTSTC

Structure (SMILES): Cc1cc([C@@H](C)Nc2ccccc2C(=O)O)c2nc(N3CCOCC3)cc(=O)n2c1 [AZD-6482]
% of control [1]: 93%

IC50 [2]: > 250 µM
Structure (SMILES): CCc1cc(Nc2nccc(-c3c(-c4ccc(OC)c(C(=O)Nc5c(F)cccc5F)c4)nc4ccccn34)n2)c(OC)cc1N1CCC(N2CCN(S(C)(=O)=O)CC2)CC1

% of inhibition [3]: 34.3%
Structure (SMILES): CC[C@@H]1[C@H](F)C(=O)N[C@@H]1COc1nccc2cc(C(N)=O)c(OC)cc12 [ZIMLOVISERTIB]

IC50 [4]: > 30 µM
Structure (SMILES): CCC(=O)N1CC[C@H](Nc2ncnc3c2CN(c2cnc(OC)c(C(F)(F)F)c2)CC3)C1 [LENIOLISIB]

% of inhibition [5]: 6%
Structure (SMILES): CN1Cc2nccc(-c3cn(C)nc3-c3ccc(F)cc3)c2C1=O

% of control [6]: 100%
Structure (SMILES): CCN(CC)CCCCNc1ncc2cc(-c3cc(OC)cc(OC)c3)c(NC(=O)NC(C)(C)C)nc2n1

Structure (SMILES): COCC(=O)NC/C=C/c1ccc2ncnc(Nc3ccc(Oc4ccc(C)nc4)c(C)c3)c2c1 [CP-724714]
% of control [7]: 89%

% of control ([8]; at 1 µM): 81%
% of control ([8]; at 5 µM): 55%
Structure (SMILES): C=CC(=O)Nc1cccc(C(=O)Nc2ccc(Nc3cc(-c4[nH]c(SC)nc4C)ccn3)cc2)c1

Structure (SMILES): CCC(=O)N1CCN(c2ccc(-n3c(=O)ccc4cnc5ccc(-c6cnc7ccccc7c6)cc5c43)cc2C(F)(F)F)CC1
% of control [9]: 74%
% of control [10]: 63%

Structure (SMILES): N#Cc1cccc(-c2c[nH]c3ncnc(N4CCOCC4)c23)c1
% of inhibition [11]: 2%

Structure (SMILES): O[C@H]1CC[C@H](Nc2ncc3nc(Nc4c(F)cc(F)cc4F)n([C@H]4CCOC4)c3n2)CC1
% of control [12]: 52%
% of control [13]: 100%

Structure (SMILES): CNC(=O)Nc1ccc(-c2nc(N3CC4CCC(C3)O4)c3cnn(C4CCC5(CC4)OCCO5)c3n2)cc1
% of control [14]: 90%

Structure (SMILES): O=C(NOC[C@H](O)CO)c1ccc(F)c(F)c1Nc1ccc(I)cc1F
% of control [15]: 100%
